In ChEMBL document CHEMBL1138694, “Discovery of small molecule antagonists of TRPV1” (2004) one finds pKb data, which are given here for three compounds.

Assay [1] deals with Transient receptor potential cation channel subfamily V member 1 (Homo sapiens) (UniProt Q8NER1). The assay is described as follows: Antagonistic activity against human transient receptor potential vanilloid type 1 in FLIPR assay. Type of assay: functional.
Assay [2] has as its target Transient receptor potential cation channel subfamily V member 1 (Cavia porcellus) (UniProt Q6R5A3). The assay is described as follows: Antagonistic activity against guinea pig Transient receptor potential vanilloid type 1 expressed in HEK293 cells compared to capsaicin.
Assay [3] in a line: Inhibition of capsaicin- response in rat dorsal root ganglion. In kind it is functional.
Assay [4] can be described thus: Antagonistic activity against rat transient receptor potential vanilloid type 1 expressed in HEK293 cells compared to capsaicin. In kind it is functional.

Chain of Transient receptor potential cation channel subfamily V member 1 (Homo sapiens) (Q8NER1 whole entry): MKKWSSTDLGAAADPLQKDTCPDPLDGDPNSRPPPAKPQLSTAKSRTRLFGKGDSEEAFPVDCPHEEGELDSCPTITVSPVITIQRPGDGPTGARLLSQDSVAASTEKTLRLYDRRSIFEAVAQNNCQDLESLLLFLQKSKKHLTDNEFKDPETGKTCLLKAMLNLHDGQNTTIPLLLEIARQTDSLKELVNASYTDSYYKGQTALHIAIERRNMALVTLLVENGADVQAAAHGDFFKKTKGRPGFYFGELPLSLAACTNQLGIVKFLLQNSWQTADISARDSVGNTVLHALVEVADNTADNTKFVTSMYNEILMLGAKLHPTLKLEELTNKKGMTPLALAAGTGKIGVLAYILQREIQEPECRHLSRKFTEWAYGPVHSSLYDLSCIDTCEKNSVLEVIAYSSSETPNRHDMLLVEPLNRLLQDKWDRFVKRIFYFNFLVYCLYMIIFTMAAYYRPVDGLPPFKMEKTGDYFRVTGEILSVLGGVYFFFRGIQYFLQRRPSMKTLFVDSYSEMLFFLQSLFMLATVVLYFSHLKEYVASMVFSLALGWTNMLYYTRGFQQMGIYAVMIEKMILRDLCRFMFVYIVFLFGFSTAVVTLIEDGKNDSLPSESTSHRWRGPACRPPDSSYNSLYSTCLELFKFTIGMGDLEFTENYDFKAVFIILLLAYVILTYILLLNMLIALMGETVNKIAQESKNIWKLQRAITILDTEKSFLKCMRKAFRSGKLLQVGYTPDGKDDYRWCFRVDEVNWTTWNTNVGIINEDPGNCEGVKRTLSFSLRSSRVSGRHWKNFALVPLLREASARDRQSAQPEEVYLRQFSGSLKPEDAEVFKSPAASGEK
Chain of Transient receptor potential cation channel subfamily V member 1 (Cavia porcellus) (Q6R5A3 whole entry, looked up): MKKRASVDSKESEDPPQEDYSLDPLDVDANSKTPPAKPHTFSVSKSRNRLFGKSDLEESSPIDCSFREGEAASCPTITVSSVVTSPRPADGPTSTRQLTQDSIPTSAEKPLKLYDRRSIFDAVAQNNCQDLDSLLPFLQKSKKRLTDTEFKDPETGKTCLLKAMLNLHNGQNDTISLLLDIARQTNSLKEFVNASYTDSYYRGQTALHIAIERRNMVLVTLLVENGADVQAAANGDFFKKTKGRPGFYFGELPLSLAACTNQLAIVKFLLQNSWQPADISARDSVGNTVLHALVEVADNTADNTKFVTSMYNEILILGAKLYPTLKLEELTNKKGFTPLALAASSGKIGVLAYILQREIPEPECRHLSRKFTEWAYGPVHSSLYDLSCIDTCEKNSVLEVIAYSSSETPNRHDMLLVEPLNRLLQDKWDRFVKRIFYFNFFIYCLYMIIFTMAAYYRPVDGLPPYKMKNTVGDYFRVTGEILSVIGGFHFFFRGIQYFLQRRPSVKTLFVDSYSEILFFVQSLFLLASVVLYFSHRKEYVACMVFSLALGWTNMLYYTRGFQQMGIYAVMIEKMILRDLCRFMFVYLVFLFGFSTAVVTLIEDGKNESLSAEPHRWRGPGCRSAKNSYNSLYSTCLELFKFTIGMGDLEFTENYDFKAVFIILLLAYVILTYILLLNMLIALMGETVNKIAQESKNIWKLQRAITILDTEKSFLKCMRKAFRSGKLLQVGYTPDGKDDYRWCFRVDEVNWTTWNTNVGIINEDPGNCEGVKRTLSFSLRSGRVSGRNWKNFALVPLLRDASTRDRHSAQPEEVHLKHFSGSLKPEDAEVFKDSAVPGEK

As usually defined, the pKb is −log10 of the Kb, conventionally taken in molar units. A high value points to a small Kb. `COc1cccc(NC(=O)/C=C/c2ccc(Cl)cc2)c1` gave a pKb in assay [1] of 7.7.

`CCN(CCNC(=O)Nc1ccccc1Br)c1cccc(C)c1`: the negative logarithm of the Kb (pKb) in assay [2] was 7.5; in assay [1], 7.8; in assay [3], 7.4; in assay [4], 7.7.

In assay [1], `Oc1cc2c(cc1O)CN(C(=S)NCCc1ccc(Cl)cc1)CCC2` had a pKb of 7.5.
